Key:
[1] = Tmax in Wistar rat plasma at 30 mg/kg, po; type: ADME, organism-based
[2] = target: Dipeptidyl peptidase 9 (Homo sapiens, UniProt Q86TI2); assay: Inhibition of DPP9 (unknown origin)
[3] = Plasma protein binding in rat; type: ADME, cell-free; details: read-out: PPB (converted)
[4] = target: Neprilysin (Homo sapiens, UniProt P08473); assay: Inhibition of NEP (unknown origin)
[5] = target: T1, Angiotensin-converting enzyme (Rattus norvegicus, UniProt P47820); assay: Inhibition of Wistar rat plasma ACE
T1 sequence (P47820 whole entry): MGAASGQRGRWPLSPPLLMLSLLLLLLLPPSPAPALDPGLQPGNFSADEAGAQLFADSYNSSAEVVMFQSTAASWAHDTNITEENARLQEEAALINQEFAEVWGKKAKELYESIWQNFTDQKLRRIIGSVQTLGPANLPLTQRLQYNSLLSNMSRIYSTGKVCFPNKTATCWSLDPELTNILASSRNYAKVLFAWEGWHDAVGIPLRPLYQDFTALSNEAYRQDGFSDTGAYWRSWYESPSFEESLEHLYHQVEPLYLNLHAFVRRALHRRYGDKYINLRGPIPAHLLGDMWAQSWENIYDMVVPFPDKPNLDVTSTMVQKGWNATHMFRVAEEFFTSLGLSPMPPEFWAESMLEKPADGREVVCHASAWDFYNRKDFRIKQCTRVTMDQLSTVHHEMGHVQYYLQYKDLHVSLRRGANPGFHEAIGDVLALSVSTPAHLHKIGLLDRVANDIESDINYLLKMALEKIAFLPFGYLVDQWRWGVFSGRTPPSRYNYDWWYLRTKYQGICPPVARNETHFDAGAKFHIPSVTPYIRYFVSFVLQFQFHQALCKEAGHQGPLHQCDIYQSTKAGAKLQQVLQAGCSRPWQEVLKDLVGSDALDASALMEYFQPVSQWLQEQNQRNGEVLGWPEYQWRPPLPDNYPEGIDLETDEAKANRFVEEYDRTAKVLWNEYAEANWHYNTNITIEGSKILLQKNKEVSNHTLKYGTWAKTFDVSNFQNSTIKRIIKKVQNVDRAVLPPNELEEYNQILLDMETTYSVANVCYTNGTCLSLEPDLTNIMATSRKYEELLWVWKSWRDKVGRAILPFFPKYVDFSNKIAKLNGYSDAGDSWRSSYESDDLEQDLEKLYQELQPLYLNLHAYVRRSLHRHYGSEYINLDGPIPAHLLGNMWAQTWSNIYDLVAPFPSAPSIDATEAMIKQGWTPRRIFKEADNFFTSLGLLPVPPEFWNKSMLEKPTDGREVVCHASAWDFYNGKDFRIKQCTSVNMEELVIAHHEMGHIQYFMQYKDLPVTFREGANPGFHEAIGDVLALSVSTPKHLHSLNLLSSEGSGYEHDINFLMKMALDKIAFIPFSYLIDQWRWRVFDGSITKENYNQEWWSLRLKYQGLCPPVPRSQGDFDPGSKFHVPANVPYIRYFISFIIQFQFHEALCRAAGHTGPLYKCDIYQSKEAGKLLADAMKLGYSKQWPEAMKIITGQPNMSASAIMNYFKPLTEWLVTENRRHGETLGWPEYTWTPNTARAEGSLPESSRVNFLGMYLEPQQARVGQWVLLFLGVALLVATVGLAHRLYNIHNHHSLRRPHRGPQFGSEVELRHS

[6] = target: T2, Prolyl endopeptidase (Homo sapiens, UniProt P48147); assay: Inhibition of PPCE (unknown origin)
T2 sequence (P48147 whole entry): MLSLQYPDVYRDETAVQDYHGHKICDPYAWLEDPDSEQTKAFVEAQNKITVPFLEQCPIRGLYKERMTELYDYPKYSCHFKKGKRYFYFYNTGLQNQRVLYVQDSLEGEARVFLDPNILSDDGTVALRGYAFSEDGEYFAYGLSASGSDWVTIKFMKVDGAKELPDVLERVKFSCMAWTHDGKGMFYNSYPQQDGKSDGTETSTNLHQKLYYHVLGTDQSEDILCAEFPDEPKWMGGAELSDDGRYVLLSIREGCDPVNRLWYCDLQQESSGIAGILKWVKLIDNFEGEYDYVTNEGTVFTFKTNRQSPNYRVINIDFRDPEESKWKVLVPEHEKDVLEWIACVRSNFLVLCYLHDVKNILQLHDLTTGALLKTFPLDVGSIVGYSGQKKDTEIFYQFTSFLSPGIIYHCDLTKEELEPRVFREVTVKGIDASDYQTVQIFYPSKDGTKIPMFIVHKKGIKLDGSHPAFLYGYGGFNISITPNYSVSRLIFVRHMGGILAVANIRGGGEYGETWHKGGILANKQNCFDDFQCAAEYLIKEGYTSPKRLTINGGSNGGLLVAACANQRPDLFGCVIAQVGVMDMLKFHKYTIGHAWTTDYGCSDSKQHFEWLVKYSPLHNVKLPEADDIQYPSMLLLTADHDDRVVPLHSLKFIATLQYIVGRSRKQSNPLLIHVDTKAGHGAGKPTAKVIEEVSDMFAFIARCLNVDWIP

[7] = target: Dipeptidyl peptidase 4 (Homo sapiens, UniProt P27487); assay: Inhibition of human plasma DPP4
[8] = Plasma protein binding in human; type: ADME, cell-free; details: read-out: PPB (converted)
[9] = target: Angiotensin-converting enzyme (Homo sapiens, UniProt P12821); assay: Inhibition of human plasma ACE
Angiotensin-converting enzyme (Homo sapiens, UniProt P12821), sequence (P12821 whole entry): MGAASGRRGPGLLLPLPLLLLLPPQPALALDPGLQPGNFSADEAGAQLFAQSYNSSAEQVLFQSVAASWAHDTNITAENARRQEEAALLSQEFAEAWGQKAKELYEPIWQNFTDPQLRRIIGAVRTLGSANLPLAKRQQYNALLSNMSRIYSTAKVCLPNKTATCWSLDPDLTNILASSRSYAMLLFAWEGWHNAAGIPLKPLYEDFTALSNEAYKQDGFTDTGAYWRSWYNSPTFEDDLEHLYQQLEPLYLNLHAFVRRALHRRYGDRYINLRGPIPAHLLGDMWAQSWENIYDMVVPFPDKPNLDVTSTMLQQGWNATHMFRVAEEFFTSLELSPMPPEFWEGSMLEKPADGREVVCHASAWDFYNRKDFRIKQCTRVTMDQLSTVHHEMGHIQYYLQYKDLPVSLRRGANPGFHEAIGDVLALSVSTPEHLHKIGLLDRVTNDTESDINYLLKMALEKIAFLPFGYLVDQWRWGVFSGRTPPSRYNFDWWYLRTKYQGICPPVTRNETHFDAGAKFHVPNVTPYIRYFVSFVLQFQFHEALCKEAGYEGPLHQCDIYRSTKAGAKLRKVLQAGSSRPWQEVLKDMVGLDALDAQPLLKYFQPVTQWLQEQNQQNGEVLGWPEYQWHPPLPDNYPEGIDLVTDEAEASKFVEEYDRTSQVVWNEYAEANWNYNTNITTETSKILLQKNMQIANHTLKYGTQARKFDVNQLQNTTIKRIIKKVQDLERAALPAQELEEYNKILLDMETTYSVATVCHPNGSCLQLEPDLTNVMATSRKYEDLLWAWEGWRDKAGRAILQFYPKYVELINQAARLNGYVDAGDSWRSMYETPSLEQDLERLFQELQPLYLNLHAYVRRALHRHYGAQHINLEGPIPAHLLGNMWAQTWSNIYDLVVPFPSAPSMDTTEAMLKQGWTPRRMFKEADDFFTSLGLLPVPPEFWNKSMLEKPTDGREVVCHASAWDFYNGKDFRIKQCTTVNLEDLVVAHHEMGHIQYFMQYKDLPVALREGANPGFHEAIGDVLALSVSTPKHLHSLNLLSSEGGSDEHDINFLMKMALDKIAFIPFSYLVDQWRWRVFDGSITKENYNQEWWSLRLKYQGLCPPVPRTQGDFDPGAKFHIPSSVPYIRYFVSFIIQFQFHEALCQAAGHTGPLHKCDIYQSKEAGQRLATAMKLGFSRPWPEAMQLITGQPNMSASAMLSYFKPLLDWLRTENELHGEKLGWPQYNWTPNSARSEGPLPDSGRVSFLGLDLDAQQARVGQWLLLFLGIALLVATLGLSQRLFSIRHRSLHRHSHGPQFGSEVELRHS

[10] = target: Cytochrome P450 2C9 (Homo sapiens, UniProt P11712); assay: Inhibition of CYP2C9 (unknown origin) up to 10 uM; type: ADME
Cytochrome P450 2C9, sequence (P11712 whole entry): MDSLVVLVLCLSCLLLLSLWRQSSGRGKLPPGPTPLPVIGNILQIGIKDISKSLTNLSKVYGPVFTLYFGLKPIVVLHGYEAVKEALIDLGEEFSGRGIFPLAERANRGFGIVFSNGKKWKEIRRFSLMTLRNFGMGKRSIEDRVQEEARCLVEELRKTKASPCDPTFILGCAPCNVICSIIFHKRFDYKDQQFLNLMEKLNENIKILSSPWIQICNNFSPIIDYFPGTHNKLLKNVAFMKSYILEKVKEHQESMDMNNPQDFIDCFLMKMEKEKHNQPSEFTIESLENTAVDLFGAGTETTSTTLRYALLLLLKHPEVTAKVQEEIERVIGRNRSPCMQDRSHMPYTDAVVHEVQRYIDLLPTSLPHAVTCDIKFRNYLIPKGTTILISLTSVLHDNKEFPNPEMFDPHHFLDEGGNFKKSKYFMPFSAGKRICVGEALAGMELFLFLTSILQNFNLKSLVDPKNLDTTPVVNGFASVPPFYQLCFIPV

[11] = target: Dipeptidyl peptidase 4 (Mus musculus, UniProt P28843); assay: Inhibition of ob/ob mouse plasma DPP4
Dipeptidyl peptidase 4 (Mus musculus, UniProt P28843), sequence (P28843 whole entry): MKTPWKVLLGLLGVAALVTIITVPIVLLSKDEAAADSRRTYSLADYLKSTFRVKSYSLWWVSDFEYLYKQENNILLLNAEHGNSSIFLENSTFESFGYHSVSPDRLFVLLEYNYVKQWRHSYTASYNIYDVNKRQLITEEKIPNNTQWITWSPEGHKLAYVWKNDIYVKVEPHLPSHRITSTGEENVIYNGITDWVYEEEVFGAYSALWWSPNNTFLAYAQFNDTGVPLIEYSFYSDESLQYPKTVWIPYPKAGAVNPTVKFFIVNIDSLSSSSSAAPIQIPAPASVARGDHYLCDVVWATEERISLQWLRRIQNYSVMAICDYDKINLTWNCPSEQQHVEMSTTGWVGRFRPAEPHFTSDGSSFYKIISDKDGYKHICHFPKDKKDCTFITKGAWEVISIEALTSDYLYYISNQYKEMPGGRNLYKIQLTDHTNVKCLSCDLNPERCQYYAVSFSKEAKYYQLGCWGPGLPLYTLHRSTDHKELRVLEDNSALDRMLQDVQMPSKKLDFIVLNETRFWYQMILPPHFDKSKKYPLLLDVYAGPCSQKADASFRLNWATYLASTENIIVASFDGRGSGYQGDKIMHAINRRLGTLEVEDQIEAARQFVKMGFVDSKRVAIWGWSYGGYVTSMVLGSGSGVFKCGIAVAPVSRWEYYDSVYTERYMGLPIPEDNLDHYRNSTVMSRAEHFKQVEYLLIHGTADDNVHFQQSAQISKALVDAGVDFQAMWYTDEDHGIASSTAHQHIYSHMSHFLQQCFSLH

[12] = AUC (0 to infinity) in Wistar rat plasma at 30 mg/kg, po; type: ADME, organism-based; parameters: dose 30 mg/kg, time infinity, route oral
[13] = target: Dipeptidyl peptidase 8 (Homo sapiens, UniProt Q6V1X1); assay: Inhibition of DPP8 (unknown origin)
Dipeptidyl peptidase 8, sequence (Q6V1X1 whole entry): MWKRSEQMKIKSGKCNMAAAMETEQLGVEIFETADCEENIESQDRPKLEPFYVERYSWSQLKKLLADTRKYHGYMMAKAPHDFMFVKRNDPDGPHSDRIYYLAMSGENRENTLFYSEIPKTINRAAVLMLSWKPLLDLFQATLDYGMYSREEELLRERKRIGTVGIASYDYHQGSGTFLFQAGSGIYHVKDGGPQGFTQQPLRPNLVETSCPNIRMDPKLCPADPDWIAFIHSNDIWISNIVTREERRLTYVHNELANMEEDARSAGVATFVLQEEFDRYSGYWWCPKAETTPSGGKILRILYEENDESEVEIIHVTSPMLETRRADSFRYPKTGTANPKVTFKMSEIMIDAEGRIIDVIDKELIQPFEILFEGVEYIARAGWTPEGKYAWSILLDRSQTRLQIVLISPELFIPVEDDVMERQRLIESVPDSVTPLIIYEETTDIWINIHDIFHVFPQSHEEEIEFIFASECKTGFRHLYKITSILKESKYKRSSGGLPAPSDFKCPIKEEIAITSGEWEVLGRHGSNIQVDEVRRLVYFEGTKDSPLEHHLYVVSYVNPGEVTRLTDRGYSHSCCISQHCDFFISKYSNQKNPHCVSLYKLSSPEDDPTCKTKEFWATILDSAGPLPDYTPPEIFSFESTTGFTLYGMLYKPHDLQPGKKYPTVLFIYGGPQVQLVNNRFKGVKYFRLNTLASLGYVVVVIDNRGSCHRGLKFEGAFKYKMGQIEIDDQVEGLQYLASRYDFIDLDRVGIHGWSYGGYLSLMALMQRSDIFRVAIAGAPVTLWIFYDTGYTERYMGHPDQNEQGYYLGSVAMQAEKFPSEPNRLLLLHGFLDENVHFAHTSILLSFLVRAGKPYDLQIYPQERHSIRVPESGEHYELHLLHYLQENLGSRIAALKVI

Dipeptidyl peptidase 9, sequence (Q86TI2 whole entry): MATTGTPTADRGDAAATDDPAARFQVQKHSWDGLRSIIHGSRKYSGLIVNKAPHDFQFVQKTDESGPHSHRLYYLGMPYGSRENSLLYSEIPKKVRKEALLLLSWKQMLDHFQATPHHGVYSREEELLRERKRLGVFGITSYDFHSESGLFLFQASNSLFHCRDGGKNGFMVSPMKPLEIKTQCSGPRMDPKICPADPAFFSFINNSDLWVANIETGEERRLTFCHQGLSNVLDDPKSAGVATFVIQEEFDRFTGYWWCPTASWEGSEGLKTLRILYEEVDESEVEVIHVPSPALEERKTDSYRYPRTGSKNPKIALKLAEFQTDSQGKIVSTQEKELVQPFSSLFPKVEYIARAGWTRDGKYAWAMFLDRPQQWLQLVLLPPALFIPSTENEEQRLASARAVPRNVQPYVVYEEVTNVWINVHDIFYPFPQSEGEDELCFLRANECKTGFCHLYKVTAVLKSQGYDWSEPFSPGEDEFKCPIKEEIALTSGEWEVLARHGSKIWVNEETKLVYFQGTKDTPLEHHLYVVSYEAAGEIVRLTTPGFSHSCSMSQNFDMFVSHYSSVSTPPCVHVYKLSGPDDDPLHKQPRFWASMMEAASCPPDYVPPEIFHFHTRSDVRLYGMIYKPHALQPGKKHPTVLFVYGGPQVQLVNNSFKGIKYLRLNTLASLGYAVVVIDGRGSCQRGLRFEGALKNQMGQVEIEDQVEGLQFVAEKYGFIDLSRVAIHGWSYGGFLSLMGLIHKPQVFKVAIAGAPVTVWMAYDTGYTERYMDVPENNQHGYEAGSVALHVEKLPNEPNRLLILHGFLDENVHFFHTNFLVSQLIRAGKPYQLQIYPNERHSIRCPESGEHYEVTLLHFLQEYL
Neprilysin, sequence (P08473 whole entry): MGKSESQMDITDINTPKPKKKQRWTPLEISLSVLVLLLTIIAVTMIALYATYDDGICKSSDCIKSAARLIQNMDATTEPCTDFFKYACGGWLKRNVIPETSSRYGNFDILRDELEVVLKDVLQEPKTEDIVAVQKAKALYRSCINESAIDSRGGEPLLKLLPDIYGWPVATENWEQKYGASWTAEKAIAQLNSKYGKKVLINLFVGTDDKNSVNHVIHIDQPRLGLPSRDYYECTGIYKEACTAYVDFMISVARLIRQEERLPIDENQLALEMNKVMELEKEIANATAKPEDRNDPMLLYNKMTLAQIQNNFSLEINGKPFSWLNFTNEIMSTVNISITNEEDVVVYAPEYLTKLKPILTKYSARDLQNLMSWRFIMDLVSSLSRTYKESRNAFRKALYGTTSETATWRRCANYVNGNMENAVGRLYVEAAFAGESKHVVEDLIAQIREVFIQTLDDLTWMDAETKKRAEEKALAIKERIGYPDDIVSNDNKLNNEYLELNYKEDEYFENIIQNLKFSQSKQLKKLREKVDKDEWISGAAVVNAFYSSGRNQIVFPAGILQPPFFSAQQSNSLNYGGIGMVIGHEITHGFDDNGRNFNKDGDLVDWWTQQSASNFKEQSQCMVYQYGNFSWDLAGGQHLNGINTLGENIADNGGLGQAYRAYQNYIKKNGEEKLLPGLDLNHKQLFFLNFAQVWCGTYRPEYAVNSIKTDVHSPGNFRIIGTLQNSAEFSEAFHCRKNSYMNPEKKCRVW

Compound `CC[C@H](N[C@@H](CCc1ccccc1)C(=O)O)C(=O)N1C[C@@H](NC(=O)C[C@H](N)Cc2cc(F)c(F)cc2F)C[C@H]1C(=O)O` has a Tmax [1] of 1.67 h, an IC50 [2] greater than 100000 nM and a fraction unbound [3] of 0.403. It also gave an IC50 [4] greater than 100000 nM, an IC50 [5] of 24 nM and an IC50 [6] greater than 100000 nM. It also gave an IC50 [7] of 57 nM, a fraction unbound [8] of 0.636 and an IC50 [9] of 8.6 to 8.9 nM. For the same compound, the “inhibition (INH)” value [10] was “Not Active”, the IC50 [11] was 488 nM and the AUC(0-inf) [12] was 2860 ng·h/mL. For the same compound, the IC50 [13] was 69000 nM.
`CCC[C@H](N[C@@H](CCc1ccccc1)C(=O)O)C(=O)N1C[C@@H](NC(=O)C[C@H](N)Cc2cc(F)c(F)cc2F)C[C@H]1C(=O)O` showed a Tmax [1] of 3.3 h, an IC50 [2] greater than 100000 nM and a fraction unbound [3] of 0.564. It also gave an IC50 [4] greater than 100000 nM, an IC50 [5] of 893 nM and an IC50 [6] greater than 100000 nM. For the same compound, the IC50 [7] was 67 nM, the fraction unbound [8] was 0.597 and the IC50 [9] was 51 nM. For the same compound, the “inhibition (INH)” value [10] was “Not Active”, the IC50 [11] was 2470 nM and the AUC(0-inf) [12] was 23500 ng·h/mL. It also gave an IC50 [13] of 57000 nM.
For `CCCC[C@H](N[C@@H](CCc1ccccc1)C(=O)O)C(=O)N1C[C@@H](NC(=O)C[C@H](N)Cc2cc(F)c(F)cc2F)C[C@H]1C(=O)O`, the Tmax [1] was 2 h, the IC50 [2] was greater than 100000 nM and the fraction unbound [3] was 0.583. It also gave an IC50 [4] greater than 100000 nM, an IC50 [5] of 2800 nM and an IC50 [6] greater than 100000 nM. It also gave an IC50 [7] of 102 nM, a fraction unbound [8] of 0.327 and an IC50 [9] of 279 nM. For the same compound, the “inhibition (INH)” value [10] was “Not Active”, the IC50 [11] was 7170 nM and the AUC(0-inf) [12] was 16800 ng·h/mL. It also gave an IC50 [13] greater than 100000 nM.
With `C[C@H](N[C@@H](CCc1ccccc1)C(=O)O)C(=O)N1C[C@@H](NC(=O)C[C@H](N)Cc2cc(F)c(F)cc2F)C[C@H]1C(=O)O` the Tmax [1] was 1.5 h, the IC50 [2] was 44000 nM and the fraction unbound [3] was 0.58. It also gave an IC50 [4] greater than 100000 nM, an IC50 [5] of 334 nM and an IC50 [7] of 255 nM. For the same compound, the fraction unbound [8] was 0.707, the IC50 [9] was 158 nM and the “inhibition (INH)” value [10] was “Not Active”. For the same compound, the IC50 [11] was 217 nM, the AUC(0-inf) [12] was 1170 ng·h/mL and the IC50 [13] was 27000 nM.
